Laboratory results as given in patent US7435721B2, “Transport peptides such as C-terminal Erns peptide and analogues thereof” (Pepscan Systems B.V., priority 2000, dated 2008).
No end group written: not given here. *: point of attachment. Biotin = O=C1N[C@H]2[C@H](CS[C@H]2CCCCC(=O)*)N1

These compounds were tested on live cells in suspension or subconfluent monolayers (assay: not given). Conditions: not given.
Type: cell-based
With “Biotin-KRIPNKKPGKKTTTKPTKKPTIK-NH2 [MDP-08]” the “Concentration (translocation activity of transport peptides)” value was 0.3 µM.
“Biotin-KRIPNKKPGKKTTTKPTKKPTIKTTKKDLK-NH2 [MDN-13]” was tested, and the “Concentration (translocation activity of transport peptides)” value was 1.0 µM.
With “Biotin-KRIPNKKPGKKTTTKPTKKPTIKTTKKDLKPQTTKPK-NH2 [MDN-12]” the “Concentration (translocation activity of transport peptides)” value was 1.0 µM.
For Biotin-KRIPNKKPKK [MDS-36], the “Concentration (translocation activity of transport peptides)” value was 0.03 µM.
For Biotin-KRPAAIKKAGQAKKKK-NH2 [Bipartite], the “Concentration (translocation activity of transport peptides)” value was 0.1 µM.
In the case of Biotin-KSICKTIPSNKPKKK-NH2 [MDP-21], the “Concentration (translocation activity of transport peptides)” value is reported as 1.0 µM.
Biotin-KTIPSNKPKKK-NH2 [MDS-35] was tested, and the “Concentration (translocation activity of transport peptides)” value was 0.1 µM.
In the case of “Biotin-NRTRRNRRRVR-NH2 [Flockhouse virus peptide]”, the “Concentration (translocation activity of transport peptides)” value is reported as 0.03 µM.
For Biotin-PKKKRKV-NH2, the “Concentration (translocation activity of transport peptides)” value was 0.1 µM.
In the case of “Biotin-QTRRRERRAEKQAQW-NH2 [Bacteriophage lambda N peptide]”, the “Concentration (translocation activity of transport peptides)” value is reported as 1.0 µM.
With “Biotin-RAGLQFPVGRVHRLLRK-NH2 [Antibacterial peptide Buforin, reference compound]” the “Concentration (translocation activity of transport peptides)” value was 3.0 µM.
“Biotin-RPRGTRGKGRRIRR-NH2 [HIV-1 tat/tar]” was tested, and the “Concentration (translocation activity of transport peptides)” value was 0.3 µM.
With Biotin-RQLRIAGRRLRGRSR-NH2 [MDM-28] the “Concentration (translocation activity), optimization of E^rns peptide” value (shortened to “Concentration (translocation activity)”) was 0.1 µM.
For Biotin-RRRERRAEK-NH2, the “Concentration (translocation activity of transport peptides)” value was 1.0 µM.
In the case of “Biotin-RRVTSWLGRQLRIAGKRLEGRSK-NH2 [MDL-8]”, the “Concentration (translocation activity)” value is reported as 1.0 µM.
For “Biotin-RVRSWLGRQLRIAGKRLEGRSK-NH2 [MDL-9]”, the “Concentration (translocation activity)” value was 1.0 µM.
In the case of “Biotin-TRRSKRRSHRKF-NH2 [Herpes virus 8 k8 protein (res 124-135)]”, the “Concentration (translocation activity of transport peptides)” value is reported as 0.1 µM.
In the case of “MAGAININ (GIGKFLHSAGKFGKAFVGEIMKS; also: biotinylated (site not given here)) [reference compound]”, the “Translocation activity (in words)” value is reported as “did not”.

Same assay, conditions: Table 9; lower concentration = higher translocation activity
In the case of Rhodamine-GRQLRIAGRRLRGRSR-NH2 [A931], the “Concentration (translocation activity)” value is reported as 3.0 µM.

Same assay, conditions: Table 11
For “Bioton-KRIPNKKPGKKTTTKPTKKPTIKTTKK-NH2 [MDP-04]”, the “Concentration (translocation activity of transport peptides)” value was 0.3 µM.

Each compound was assayed on guinea pig erythrocytes (assay: Hemolytic assay, guinea pig erythrocytes). Conditions: 1% v/v, one hour at 37° C.
Type: cell-based
Method: Hemolytic assay. Hemolytic activity of various peptide concentrations was determined by incubation with human, guinea pig or sheep erythrocyte suspensions (final erythrocyte concentration, 1% v/v) for one hour at 37° C. After cooling and centrifugation, the optical density of the supernatants were measured at 540 nm. Peptide concentrations causing 50% hemolysis (EC50) were derived from the dose-response curves.
For CC[C@H](C)[C@H](NC(=O)[C@H](CCCNC(=N)N)NC(=O)[C@H](CC(C)C)NC(=O)[C@H](CCC(N)=O)NC(=O)[C@H](CCCNC(=N)N)NC(=O)CNC(=O)[C@H](CC(C)C)NC(=O)[C@H](Cc1c[nH]c2ccccc12)NC(=O)[C@H](CO)NC(=O)[C@@H](NC(=O)[C@@H](NC(=O)[C@H](CCCNC(=N)N)NC(=O)[C@H](C)NC(=O)[C@H](C)NC(=O)CNC(=O)[C@H](CCC(N)=O)NC(=O)[C@H](CCCNC(=N)N)NC(=O)[C@H](C)NC(=O)[C@H](CC(N)=O)NC(=O)[C@H](CCC(=O)O)NC(=O)[C@@H](NC(=O)[C@@H](NC(=O)[C@H](CC(N)=O)NC(=O)[C@@H](NC(=O)[C@H](CCSC)NC(=O)CNC(=O)[C@H](CC(=O)O)NC(=O)[C@H](CC(C)C)NC(=O)[C@H](CC(C)C)NC(=O)[C@H](Cc1ccc(O)cc1)NC(=O)[C@H](CC(C)C)NC(=O)[C@H](C)NC(=O)[C@@H](NC(=O)[C@H](CC(=O)O)NC(=O)[C@H](CCC(N)=O)NC(=O)[C@H](CC(C)C)NC(=O)[C@H](CC(C)C)NC(=O)[C@H](CO)NC(=O)CNC(=O)CCCC[C@@H]1SC[C@@H]2NC(=O)N[C@@H]21)[C@@H](C)O)[C@@H](C)O)[C@@H](C)O)[C@@H](C)CC)C(C)C)[C@@H](C)O)C(=O)N[C@@H](C)C(N)=O [172-211], the “Hemolysis (peptide concentration causing 50% hemolysis)” value was greater than 0.33 mg/mL.

What follows are compounds tested on Escherichia coli ATCC 25922 (assay: Antimicrobial assay (MIC), E. coli). Conditions: overnight at 37° C.
Type: cell-based
Method: Antimicrobial assay. Two bacterial strains (Escherichia coli ATCC 25922 and Enterococcus faecalis ATCC 29212) were inoculated on heart infusion agar with 5% sheep blood and incubated aerobically overnight at 37° C. From the pure cultures, suspensions were made in saline to a density of 0.5 McFarland. These suspensions were diluted ten-fold in Mueller Hinton II broth, resulting in a final inoculum of approximately 10^7 cfu/ml.
Standard 96-well microtiter trays were filled with 100 ill of two-fold dilutions of peptide in physiologic salt solution in each well, resulting in the following concentration range: 4000, 2000, 1000, 500, 250, 125, 62.25, 31.63, 15.82, 7.96 and 0 μg/ml. The trays in column 12 were filled with 200 μl MH II broth (negative control).
Columns 1-11 of the microtiter trays were filled with 100 μl of the final inoculum of the bacterial suspensions, thus diluting the concentrations of the peptide two fold, resulting in the following peptide concentration range in the wells: 2000, 1000, 500, 250, 125, 62.25, 31.63, 15.82, 7.96, 3.98 and 0 μg/ml. In rows B, C and D, 100 μl of the final inoculum of E. coli and, in rows E, F and G, 100 μl of the final inoculum of E. faecalis was pipetted. The final bacterial concentration was approximately 5×10^5 cfu/well. All trays were sealed and incubated overnight at 37° C. After incubation, the microtiter trays were inspected visually for bacterial growth and the absorbance of the cultures at 630 nm (A630) was determined with an ELISA-reader. […] The experiment was performed independently in triplicate. The test was repeated again in triplicate after two days with the final peptide concentration range in the wells: 5000, 2500, 1250, 625, 312.5, 156.25, 78.12, 39.06, 19.58, 9.79, 4.88, 2.44 and 1.22 μg/ml.
In the case of CC[C@H](C)[C@H](NC(=O)[C@H](CCCNC(=N)N)NC(=O)[C@H](CC(C)C)NC(=O)[C@H](CCC(N)=O)NC(=O)[C@H](CCCNC(=N)N)NC(=O)CNC(=O)[C@H](CC(C)C)NC(=O)[C@H](Cc1c[nH]c2ccccc12)NC(=O)[C@H](CO)NC(=O)[C@@H](NC(=O)[C@@H](NC(=O)[C@H](CCCNC(=N)N)NC(=O)[C@H](C)NC(=O)[C@H](C)NC(=O)CNC(=O)[C@H](CCC(N)=O)NC(=O)[C@H](CCCNC(=N)N)NC(=O)[C@H](C)NC(=O)[C@H](CC(N)=O)NC(=O)[C@H](CCC(=O)O)NC(=O)[C@@H](NC(=O)[C@@H](NC(=O)[C@H](CC(N)=O)NC(=O)[C@@H](NC(=O)[C@H](CCSC)NC(=O)CNC(=O)[C@H](CC(=O)O)NC(=O)[C@H](CC(C)C)NC(=O)[C@H](CC(C)C)NC(=O)[C@H](Cc1ccc(O)cc1)NC(=O)[C@H](CC(C)C)NC(=O)[C@H](C)NC(=O)[C@@H](NC(=O)[C@H](CC(=O)O)NC(=O)[C@H](CCC(N)=O)NC(=O)[C@H](CC(C)C)NC(=O)[C@H](CC(C)C)NC(=O)[C@H](CO)NC(=O)CNC(=O)CCCC[C@@H]1SC[C@@H]2NC(=O)N[C@@H]21)[C@@H](C)O)[C@@H](C)O)[C@@H](C)O)[C@@H](C)CC)C(C)C)[C@@H](C)O)C(=O)N[C@@H](C)C(N)=O [172-211], the “MIC (minimal inhibitory concentration needed to inhibit bacterial growth)” value is reported as greater than 500 µg/mL.
